Counter-ions that a name gives are not always drawn. Like-named read-outs stand apart in the source and are kept apart here.
Legend:
[1] = test system: HBsAg secretion in HepG2.2.15 cells; experiment: Inhibition of HBsAg in HepG2.2.15 cells (CLIA), checkerboard, MacSynergy II; type: cell-based, HBV (human hepatoblastoma HepG2 cells); conditions: for Additive % Inhibition (HBsAg) versus negative control: Trial 3
Protocol: In vitro combination studies were conducted using the method of Prichard and Shipman (Prichard M N, and Shipman C Jr., Antiviral Research, 1990, 14(4-5), 181-205; and Prichard M N, et. al., MacSynergy II). The HepG2.2.15 cell culture system is a cell line derived from human hepatoblastoma HepG2 cells that have been stably transfected with the adw2− subtype HBV genome as previously explained in Sells et al. (Proc. Natl. Acad. Sci. U. S. A, 1987. Vol 84:1005-1009). HepG2.2.15 cells secrete Dane-like viral particles, produce HBV DNA, and also produce the viral proteins, hepatitis B e antigen (HBeAg) and hepatitis B surface antigen (HBsAg).
To test the compound combinations, HepG2.2.15 (30,000 cells/well) were plated in 96 well tissue-culture treated microtiter plates in RPMI+L-Glutamine medium supplemented with 1% penicillin-streptomycin, 20 μg/mL geneticin (G418), 10% fetal bovine serum, and incubated in a humidified incubator at 37° C. and 5% CO2 overnight. […] […] The microtiter cell plates were incubated for a duration of 6 days in a humidified incubator at 37° C. and 5% CO2.
Untreated positive control samples (0.5% DMSO in media) were included on each plate in multiple wells. Following a 6 day-incubation, media was removed from treated cells for use in an HBsAg chemiluminescence immunoassay (CLIA) (Autobio Diagnostics, Cat No. CL0310-2). An HBsAg standard curve was generated to verify that the levels of HBsAg quantification were within the detection limits of the assay. The remaining inhibitor-treated cells were assessed for cytotoxicity by determination of the intracellular adenosine triphosphate (ATP) using a Cell-Titer Glo reagent (Promega) as per manufacturers instructions and by microscopic analysis of the cells throughout the duration of inhibitor treatment. Cell viability was calculated as a percentage of the untreated positive control wells.
The plates were read using an EnVision multimode plate reader (PerkinElmer Model 2104). […] The RLU data from the single compound treated cells were analyzed using XL-Fit module in Microsoft Excel to determine EC50 values using a 4-parameter curve fitting algorithm.

[2] = test system: D type HBV in primary human hepatocytes (PHH); experiment: HBV DNA in culture supernatants of HBV-infected primary human hepatocytes (qPCR), MacSynergy; type: cell-based; conditions: for AVERAGE % INHIBITION: HBV DNA, COMPOUND 25 0.00 nM; for inhibition at 0.00012 µM / inhibition at 0.00037 µM / inhibition at 0.00333 µM / inhibition at 0.01 µM: Hepatitis B virus, Hepatocyte; for inhibition at 0.00012 µM: TDF 0.12 nM alone; for inhibition at 0.00037 µM: TDF 0.37 nM alone; for inhibition at 0.00333 µM: TDF 3.33 nM alone; for inhibition at 0.01 µM: TDF 10.00 nM alone
Protocol: (§1) The mouse liver perfusion was applied to isolate PHHs. The isolated hepatocytes were further purified by Percoll. The cells were resuspended with culture media and seeded into the 96-well plates (6×10^4 cell/well) or 48-well plates (1.2×10^5 cell/well). The PHHs were infected with a D type HBV one day post seeding (day 1).
(§2) On day 2, the test compounds were diluted and added into the cell culture plates. The culture media containing the compounds were refreshed every other day. The cell culture supernatants were collected on day 8 for the HBV DNA and antigen determinations.
(§3) The compounds were tested at 7 concentrations, 3-fold dilution, in triplicate.
(§4) Two compounds were tested at 5×5 matrix, in triplicate plates.
DNA in the culture supernatants harvested on days 8 were isolated with QIAamp 96 DNA Blood Kit (Qiagen-51161). For each sample, 100 μl of the culture supernatants was used to extract DNA. The DNA was eluted with 100 μl, 150 μl or 180 μl of AE. HBV DNA in the culture supernatants was quantified by qPCR. The combination effect was analyzed by the MacSynergy software. The primers are described below.

[3] = test system: HBV rcDNA in HepDE19 cells; experiment: Inhibition of rcDNA in HepDE19 cells (bDNA assay), checkerboard, MacSynergy II; type: cell-based, HBV (human hepatoma cell line); design: key to ADDITIVE INHIBITION: % inhibition of rcDNA production; conditions: Compound 3 0 μM
Protocol: In vitro combination studies were conducted using the method of Prichard and Shipman (Prichard M N, and Shipman C Jr., Antiviral Research, 1990, 14(4-5), 181-205; and Prichard M N, et. al., MacSynergy II). HepDE19 cell culture system is a HepG2 (human hepatocarcinoma) derived cell line that supports HBV DNA replication and cccDNA formation in a tetracycline (Tet)-regulated manner and produces HBV rcDNA and a detectable reporter molecule dependent on the production and maintenance of cccDNA (Guo et al 2007. J. Virol 81:12472-12484). HepDE19 (50,000 cells/well) were plated in 96 well collagen-coated tissue-culture treated microtiter plates in DMEM/F12 medium supplemented with 10% fetal bovine serum, 1% penicillin-streptomycin and 1 μg/ml tetracycline and incubated in a humidified incubator at 37° C. and 5% CO2 overnight. Next day, the cells were switched to fresh medium without tetracycline and incubated for 4 hrs at 37° C. and 5% CO2. […] The two inhibitors were tested both singly as well as in combinations in a checkerboard fashion such that each concentration of inhibitor A was combined with each concentration of inhibitor B to determine their combination effects on inhibition of rcDNA production. Following a 7 day-incubation of cells with compound combinations, the level of rcDNA present in the inhibitor-treated wells was measured using a Quantigene 2.0 bDNA assay kit (Affymetrix, Santa Clara, CA) with HBV specific custom probe set and manufacturers instructions. […] The RLU data from the single compound treated cells were analyzed using XL-Fit module in Microsoft Excel to determine EC50 values using a 4-parameter curve fitting algorithm. Concurrently, the effect of compounds on cell viability was assessed using replicate plates, plated at a density of 5,000 cells/well and incubated for 4 days, to determine the ATP content as a measure of cell viability using the cell-titer glo reagent (CTG; Promega Corporation, Madison, WI) as per manufacturer's instructions.
In vitro combination studies were conducted using the method of Prichard and Shipman (Prichard M N, Shipman C, Jr., Antiviral Res, 14, 181-205 (1990)). The HepDE19 cell line was developed as described in Guo et al. (Guo et al., J Virol, 81, 12472-12484 (2007)). It is a human hepatoma cell line stably transfected with the HBV genome, and which can express HBV pregenomic RNA and support HBV rcDNA (relaxed circular DNA) synthesis in a tetracycline-regulated manner. HepDE19 cells were plated in 96 well tissue-culture treated microtiter plates in DMEM/F12 medium supplemented with 10% fetal bovine serum+1% penicillin-streptomycin without tetracycline and incubated in a humidified incubator at 37° C. and 5% CO2 overnight. […] The two inhibitors were tested both singly as well as in combinations in a checkerboard fashion such that each concentration of inhibitor A was combined with each concentration of inhibitor B to determine their combination effects on inhibition of rcDNA production. Following a 48 hour-incubation, the level of rcDNA present in the inhibitor-treated wells was measured using a bDNA assay (Affymetrix) with HBV specific custom probe set and manufacturers instructions. […] Concurrently, the effect of inhibitor combinations on cell viability was assessed using replicate plates that were used to determine the ATP content as a measure of cell viability using the Cell-TiterGlo reagent (Promega) as per manufacturer's instructions.
In vitro combination studies were conducted using the method of Prichard and Shipman (1990) (Prichard M N, Shipman C, Jr. 1990. A three-dimensional model to analyze drug-drug interactions. Antiviral Res 14:181-205 AND Prichard M N. 1992. MacSynergy II, University of Michigan).

[4] = test system: HBsAg, D type HBV in primary human hepatocytes (PHH); experiment: microbe, parasite or virus in culture; type: cell-based; conditions: Hepatitis B virus, Hepatocyte; for inhibition at 0.00012 µM: TDF 0.12 nM alone; for inhibition at 0.00037 µM: TDF 0.37 nM alone
Protocol: as §1, §2, §3, §4
HBsAg/HBeAg in the culture supernatants harvested on days 8 were measured by the HBsAg/HBeAg ELISA kit (Autobio) according to the manual. The samples were diluted with PBS to get the signal in the range of the standard curve. The inhibition rates were calculated with the formula below. The combination effect was analyzed by the MacSynergy software.
% Inh. HBsAg=[1−HBsAg quantity of sample/HBV quantity of DMSO control]×100.

[5] = read-out: Additive inhibition, HBsAg
[6] = read-out: Average % inhibition, HBsAg
[7] = read-out: Additive inhibition, HBV DNA
[8] = read-out: Average % inhibition, HBV DNA

SMILES: COCCCOc1cc2c(cc1OC)-c1cc(=O)c(C(=O)O)cn1[C@H](C(C)C)C2 [Compound 5]
- Additive % Inhibition (HBsAg) versus negative control ([1]; Compound 5 0.0001 μM alone): 69.99%
- Additive % Inhibition (HBsAg) versus negative control ([1]; Compound 5 0.000316 μM alone): 82.39%
- Additive % Inhibition (HBsAg) versus negative control ([1]; Compound 5 0.001 μM alone): 89.01%
- Additive % Inhibition (HBsAg) versus negative control ([1]; Compound 5 0.00316 μM alone): 90.26%
- Additive % Inhibition (HBsAg) versus negative control ([1]; Compound 5 0.1 μM alone): 86.26%
- Additive % Inhibition (HBsAg) versus negative control ([1]; Compound 5 1.0E−05 μM alone): 46.36%
- Additive % Inhibition (HBsAg) versus negative control ([1]; Compound 5 1.00E−06 μM alone): 22.68%
- Additive % Inhibition (HBsAg) versus negative control ([1]; Compound 5 3.16E−06 μM alone): 34.18%
- Additive % Inhibition (HBsAg) versus negative control ([1]; Compound 5 3.17E−05 μM alone): 56.34%
- EC50 ([1]; Hepatitis B virus, HepG2.2.15, Trial 2, HBsAg by CLIA, read-out: Compound 5 EC50): 5 nM

SMILES: O=C(Nc1ccc(F)c(F)c1)c1cc(S(=O)(=O)NC2CCCC2)ccc1F [Compound 22]
- AVERAGE % INHIBITION ([2]; COMPOUND 22 61.73 nM): −11.75%
- AVERAGE % INHIBITION ([2]; COMPOUND 22 185.19 nM): −9.12%
- AVERAGE % INHIBITION ([2]; COMPOUND 22 555.56 nM): −12.7%
- AVERAGE % INHIBITION ([2]; COMPOUND 22 1666.67 nM): 17.94%
- AVERAGE % INHIBITION ([2]; COMPOUND 22 5000.00 nM): 63.06%

SMILES: CCOC(=O)C1=C(CN2CCOCC2)NC(c2nccs2)=NC1c1ccc(F)cc1Br (stereo not shown) [GLS4]
- ADDITIVE INHIBITION ([3]; GLS-4 0.007813 μM): −1.17
- ADDITIVE INHIBITION ([3]; GLS-4 0.01563 μM): −5.82
- ADDITIVE INHIBITION ([3]; GLS-4 0.03125 μM): 7.03
- ADDITIVE INHIBITION ([3]; GLS-4 0.0625 μM): 38.95
- ADDITIVE INHIBITION ([3]; GLS-4 0.125 μM): 77.82
- ADDITIVE INHIBITION ([3]; GLS-4 0.25 μM): 94.65
- ADDITIVE INHIBITION ([3]; GLS-4 0.5 μM): 97.48
- ADDITIVE INHIBITION ([3]; GLS-4 1 μM): 98.51
- ADDITIVE INHIBITION ([3]; GLS-4 2 μM): 98.22

SMILES: CC(C)OC(=O)OCOP(=O)(CO[C@H](C)Cn1cnc2c(N)ncnc21)OCOC(=O)OC(C)C [TDF, tenofovir disoproxil fumarate]
- inhibition at 0.00012 µM [4, 5]: -3.31%
- inhibition at 0.00012 µM [4, 6]: -3.31%
- inhibition at 0.00037 µM [4, 5]: -3.32%
- inhibition at 0.00037 µM [4, 6]: -3.32%
- inhibition at 0.00333 µM ([4]; read-out: Additive inhibition, HBsAg, TDF 3.33 nM alone): -1.28%
- inhibition at 0.01 µM ([4]; read-out: Additive inhibition, HBsAg, TDF 10.00 nM alone): -6.65%
- inhibition at 0.00333 µM ([4]; read-out: Average % inhibition, HBsAg, TDF 3.33 nM alone): -1.28%
- inhibition at 0.01 µM ([4]; read-out: Average % inhibition, HBsAg, TDF 10.00 nM alone): -6.65%
- inhibition at 0.00012 µM [2, 7]: -1.16%
- inhibition at 0.00012 µM [2, 8]: -1.16%
- inhibition at 0.00037 µM [2, 7]: -6.24%
- inhibition at 0.00037 µM [2, 8]: -6.24%
- inhibition at 0.00333 µM [2, 7]: 3.15%
- inhibition at 0.00333 µM [2, 8]: 3.15%
- inhibition at 0.01 µM [2, 7]: -15.4%
- inhibition at 0.01 µM [2, 8]: -15.4%

Source: US20240050463A1, “THERAPEUTIC COMPOSITIONS AND METHODS FOR TREATING HEPATITIS B” (ARBUTUS BIOPHARMA CORPORATION, priority 2016, published 2024)
